Source: patent US20100016392A1, “Pesticidal Aggregates” (priority 2006, published 2010)

Experiments:
[1] = Amount of pesticide incorporated into Sokalan PA-15/Arquad 18/50 aggregate; format: physicochemical; conditions: pesticide incorporated into aggregate with 1 equivalent Sokalan PA-15 and 2 equivalents Arquad 18/50
Experimental: […] of the active ingredient listed was placed into a 20 mL vial and 1 equivalent of a 1 molar sodium hydroxide solution added. The mixture was stirred until the active dissolved (0.5 or 1.0 gram of deionized water was added if necessary). One equivalent of Sokalan PA-15 (linear polyacrylic acid sodium salt with low molecular weight of 1200 g/mol) was added and the mixture mixed. 2 equivalents of Arquad 18/50 octadecyltrimethyl ammonium chloride (aqueous isopropanol solution) were added and the mixture was stirred using a vortex mixer. Using a process similar to that described in Example 2, the amount of pesticide incorporated into the aggregate was measured.

[2] = cited from earlier work
[3] = cited from earlier work; remark: listed apart in the source
[4] = Uptake of pesticide into the aggregate, UV-spectroscopy of the supernatant; format: physicochemical

Row | SMILES | Percent a.i. [1] | pKa [2] | other results
1 | N#Cc1cc(Br)c(O)c(Br)c1 [Bromoxynil, 3,5-dibromo-4-hydroxybenzonitrile] | 4.34 | – | –
2 | O=C(O)CNCP(=O)(O)O [Glyphosate, N-(phosphonomethyl)glycine] | 4.70 | 4.4 | –
3 | COc1c(Cl)ccc(Cl)c1C(=O)O [Dicamba, 3,6-dichloro-2-methoxybenzoic acid] | 3.77 | 3 | –
4 | O=C(O)c1nc(Cl)ccc1Cl [Clopyralid (Lontrel)] | 3.46 | – | –
5 | CCc1cnc(C2=NC(C)(C(C)C)C(=O)N2)c(C(=O)O)c1 (racemic) [Imazethapyr, (+/−)-2-[4,5-dihydro-4-methyl-4-(1-methylethyl)-5-oxo-1H-imidazol-2-yl]-5-ethyl-3-pyridinecarboxylic acid] | 5.57 | – | –
6 | O=C(NC(=O)c1c(F)cccc1F)Nc1cc(Cl)c(OC(F)(F)C(F)C(F)(F)F)cc1Cl (centres unmarked) [Lufenuron] | 8.16 | – | –
7 | CC1(C(=O)Nc2ccc(O)c(Cl)c2Cl)CCCCC1 [Fenhexamid] | 4.47 | – | –
8 | C=C1C[C@]23C[C@@]1(O)CC[C@H]2[C@@]12C=C[C@H](O)[C@@](C)(C(=O)O1)[C@H]2[C@@H]3C(=O)O [Gibberellic acid] | 6.28 | – | –
9 | CCOc1nc(F)cc2nc(S(=O)(=O)Nc3c(Cl)cccc3C(=O)OC)nn12 [Cloransulam-methyl] | 5.11 | 5.4 | –
10 | CCC(CC)Nc1c([N+](=O)[O-])cc(C)c(C)c1[N+](=O)[O-] [pendimethalin] | – | – | octanol/water partition coefficient log P [3]: 5.2
11 | O=C(O)COc1ccc(Cl)cc1Cl [2,4-D, (2,4-dichlorophenoxy)acetic acid] | 2.45 | 2.9 | –
12 | C[C@@H](Oc1ccc(Oc2cnc3cc(Cl)ccc3n2)cc1)C(=O)O [Quizalofop-P] | 4.76 | >3 | –
13 | COc1cc(OC)nc(NC(=O)NS(=O)(=O)c2ncccc2C(=O)N(C)C)n1 [Nicosulfuron] | 6.96 | 4.5 | –
14 | CS(=O)(=O)c1ccc(C(=O)C2C(=O)CCCC2=O)c([N+](=O)[O-])c1 [Mesotrione] | 6.21 | – | –
15 | CS(=O)(=O)NC(=O)c1cc(Oc2ccc(C(F)(F)F)cc2Cl)ccc1[N+](=O)[O-] [Fomesafen, 5-[2-chloro-4-(trifluoromethyl)phenoxy]-N-(methylsulfonyl)-2-nitrobenzamide] | 7.17 | – | –
16 | Cc1c(COC(=O)[C@@H]2[C@H](/C=C(\Cl)C(F)(F)F)C2(C)C)cccc1-c1ccccc1 (racemic) [Bifenthrin] | – | – | octanol/water partition coefficient log P [3]: > 6
17 | Cc1nn(-c2cc(NS(C)(=O)=O)c(Cl)cc2Cl)c(=O)n1C(F)F [Sulfentrazone] | – | – | Uptake of sulfentrazone in the aggregate ([4]; mixture: Atlox 550S 0.075, C14NBr 0.5, sulfentrazone 0.5 weight %): 74 w/w %; Uptake of sulfentrazone in the aggregate ([4]; mixture: Atlox 550S 0.15, C14NBr 0.7, sulfentrazone 0.5 weight %): 83 w/w %; Uptake of sulfentrazone in the aggregate ([4]; mixture: Atlox 550S 0.25, C14NBr 0.75, sulfentrazone 0.5 weight %): 77 w/w %; Uptake of sulfentrazone in the aggregate ([4]; mixture: Atlox 550S 0.5, C14NBr 1.25, sulfentrazone 0.5 weight %): 90 w/w %; Uptake of sulfentrazone in the aggregate ([4]; mixture: REAX 88B 0.25, C14NBr 0.6, sulfentrazone 0.5 weight %): 82 w/w %; Uptake of sulfentrazone in the aggregate ([4]; mixture: REAX 88B 0.30, C14NBr 0.8, sulfentrazone 0.5 weight %): 92 w/w %; Uptake of sulfentrazone in the aggregate ([4]; mixture: REAX 88B 0.5, C14NBr 1.0, sulfentrazone 0.5 weight %): 94 w/w %
